Laboratory results from article PMC3215231, “Arcanolysin is a cholesterol-dependent cytolysin of the human pathogen Arcanobacterium haemolyticum” (BMC Microbiology, 2011).

Target: PFO (perfringolysin O), His-tagged PFO (Clostridium perfringens, UniProt P0C2E9)
Type: biochemical

Sequence of PFO (perfringolysin O), His-tagged PFO (P0C2E9 29-500 limits assumed): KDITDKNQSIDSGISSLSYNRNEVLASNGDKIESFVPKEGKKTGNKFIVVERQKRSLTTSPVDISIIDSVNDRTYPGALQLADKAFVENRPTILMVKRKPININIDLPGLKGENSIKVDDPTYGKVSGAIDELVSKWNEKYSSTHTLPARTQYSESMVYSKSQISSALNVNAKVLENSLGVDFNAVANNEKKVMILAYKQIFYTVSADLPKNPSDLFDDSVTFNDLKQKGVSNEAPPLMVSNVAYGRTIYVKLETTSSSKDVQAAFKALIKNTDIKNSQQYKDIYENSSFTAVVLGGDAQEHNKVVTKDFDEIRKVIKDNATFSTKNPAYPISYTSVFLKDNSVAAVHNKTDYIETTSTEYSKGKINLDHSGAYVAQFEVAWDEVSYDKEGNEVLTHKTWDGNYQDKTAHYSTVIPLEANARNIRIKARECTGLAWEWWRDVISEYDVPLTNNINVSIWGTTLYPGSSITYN

CC(C)CCC[C@@H](C)[C@H]1CC[C@H]2[C@@H]3CC=C4C[C@@H](O)CC[C@]4(C)[C@H]3CC[C@]12C [cholesterol]
% activity retained at 0.5 μM cholesterol: 7.6%
